Laboratory results from ChEMBL document CHEMBL3885881, “DrugMatrix”.

Organism: Rattus norvegicus
Assay: DrugMatrix - Regimen: Daily Repeat
Format: toxicity, organism-based, Sprague-Dawley
Set-up: regimen Daily Repeat, gender Male, age 6-8 weeks
Details: in vivo, po, route oral GAVAGE, vehicle 100 % WATER; for ABSOLUTE BASOPHIL / ABSOLUTE EOSINOPHIL / ABSOLUTE LYMPHOCYTE / ABSOLUTE MONOCYTE / ABSOLUTE SEGMENTED NEUTROPHIL / BASOPHIL / EOSINOPHIL / ERYTHROCYTE COUNT / HEMATOCRIT / HEMOGLOBIN / LEUKOCYTE COUNT / LYMPHOCYTE / MEAN CORPUSCULAR HEMOGLOBIN / MEAN CORPUSCULAR HEMOGLOBIN CONCENTRATION / MEAN CORPUSCULAR VOLUME / MONOCYTE / NEUTROPHIL / NUCLEATED RED BLOOD CELLS / PLATELET COUNT: tissue Blood; for ALANINE AMINOTRANSFERASE / ALBUMIN / ALKALINE PHOSPHATASE / ASPARTATE AMINOTRANSFERASE / BLOOD UREA NITROGEN / CARBON DIOXIDE / CHLORIDE / CHOLESTEROL / CREATINE PHOSPHOKINASE / CREATININE / GLUCOSE / LACTATE DEHYDROGENASE / LIPASE / PHOSPHORUS / POTASSIUM / SODIUM / TOTAL BILIRUBIN / TOTAL PROTEIN / URIC ACID: tissue Plasma
[1] = 0 mg/kg, 72 h, dose level Control, time 3 day
[2] = 0 mg/kg, 120 h, dose level Control, time 5 day
[3] = 10 mg/kg, 72 h, dose level Low, time 3 day

In the case of `CCN(CC)CC#CCOC(=O)C(O)(c1ccccc1)C1CCCCC1` (centres undefined) [OXYBUTYNIN], the “ABSOLUTE BASOPHIL” value [1] is reported as 0 CELLS/uL, the “ABSOLUTE EOSINOPHIL” value [1] is reported as 24 CELLS/uL and the “ABSOLUTE LYMPHOCYTE” value [1] is reported as 13105 CELLS/uL. For the same compound, the “ABSOLUTE MONOCYTE” value [1] was 76 CELLS/uL, the “ABSOLUTE SEGMENTED NEUTROPHIL” value [1] was 2145 CELLS/uL and the BASOPHIL [1] was 0%. For the same compound, the EOSINOPHIL [1] was 0.17%, the “ERYTHROCYTE COUNT” value [1] was 5.81 x10E6/uL and the HEMATOCRIT [1] was 35.6%. For the same compound, the HEMOGLOBIN [1] was 13.72 G/DL, the “LEUKOCYTE COUNT” value [1] was 15.35 x10E3/uL and the LYMPHOCYTE [1] was 85.5%. The “MEAN CORPUSCULAR HEMOGLOBIN” value [1] was 23.62 pg, the “MEAN CORPUSCULAR HEMOGLOBIN CONCENTRATION” value [1] was 38.55 G/DL and the “MEAN CORPUSCULAR VOLUME” value [1] was 61.23 fL. For the same compound, the MONOCYTE [1] was 0.5%, the NEUTROPHIL [1] was 13.83% and the “NUCLEATED RED BLOOD CELLS” value [1] was 0 /100WBC. The “PLATELET COUNT” value [1] was 1189.83 x10E3/uL, the “ALANINE AMINOTRANSFERASE” value [1] was 48.67 u/L and the ALBUMIN [1] was 4.27 G/DL. For the same compound, the “ALKALINE PHOSPHATASE” value [1] was 335 u/L, the “ASPARTATE AMINOTRANSFERASE” value [1] was 86.5 u/L and the “BLOOD UREA NITROGEN” value [1] was 14.33 mg/dL. The “CARBON DIOXIDE” value [1] was 29.17 mmol/L, the CHLORIDE [1] was 99.83 MEQ/L and the CHOLESTEROL [1] was 71.83 mg/dL. The “CREATINE PHOSPHOKINASE” value [1] was 506.83 u/L, the CREATININE [1] was 0.18 mg/dL and the GLUCOSE [1] was 162.17 mg/dL. For the same compound, the “LACTATE DEHYDROGENASE” value [1] was 264.5 u/L, the LIPASE [1] was 9.67 u/L and the PHOSPHORUS [1] was 11.92 mg/dL. For the same compound, the POTASSIUM [1] was 6.55 MEQ/L, the SODIUM [1] was 141.53 MEQ/L and the “TOTAL BILIRUBIN” value [1] was 0.18 mg/dL. For the same compound, the “TOTAL PROTEIN” value [1] was 5.87 G/DL, the “URIC ACID” value [1] was 1.67 mg/dL and the “ABSOLUTE BASOPHIL” value [2] was 0 CELLS/uL. The “ABSOLUTE EOSINOPHIL” value [2] was 25.33 CELLS/uL, the “ABSOLUTE LYMPHOCYTE” value [2] was 15680 CELLS/uL and the “ABSOLUTE MONOCYTE” value [2] was 92.33 CELLS/uL. The “ABSOLUTE SEGMENTED NEUTROPHIL” value [2] was 2102.33 CELLS/uL, the BASOPHIL [2] was 0% and the EOSINOPHIL [2] was 0.17%. For the same compound, the “ERYTHROCYTE COUNT” value [2] was 6 x10E6/uL, the HEMATOCRIT [2] was 35.55% and the HEMOGLOBIN [2] was 14.12 G/DL. The “LEUKOCYTE COUNT” value [2] was 17.9 x10E3/uL, the LYMPHOCYTE [2] was 87.33% and the “MEAN CORPUSCULAR HEMOGLOBIN” value [2] was 23.65 pg. The “MEAN CORPUSCULAR HEMOGLOBIN CONCENTRATION” value [2] was 39.77 G/DL, the “MEAN CORPUSCULAR VOLUME” value [2] was 59.52 fL and the MONOCYTE [2] was 0.5%. For the same compound, the NEUTROPHIL [2] was 12%, the “NUCLEATED RED BLOOD CELLS” value [2] was 0.17 /100WBC and the “PLATELET COUNT” value [2] was 1325.67 x10E3/uL. The “ALANINE AMINOTRANSFERASE” value [2] was 56.17 u/L, the ALBUMIN [2] was 4.23 G/DL and the “ALKALINE PHOSPHATASE” value [2] was 371.5 u/L. For the same compound, the “ASPARTATE AMINOTRANSFERASE” value [2] was 91 u/L, the “BLOOD UREA NITROGEN” value [2] was 15.33 mg/dL and the “CARBON DIOXIDE” value [2] was 27.67 mmol/L. The CHLORIDE [2] was 99.5 MEQ/L, the CHOLESTEROL [2] was 66.5 mg/dL and the “CREATINE PHOSPHOKINASE” value [2] was 518.5 u/L. For the same compound, the CREATININE [2] was 0.18 mg/dL, the GLUCOSE [2] was 143.33 mg/dL and the “LACTATE DEHYDROGENASE” value [2] was 238.83 u/L. The LIPASE [2] was 9.33 u/L, the PHOSPHORUS [2] was 10.68 mg/dL and the POTASSIUM [2] was 6.5 MEQ/L. The SODIUM [2] was 141.88 MEQ/L, the “TOTAL BILIRUBIN” value [2] was 0.18 mg/dL and the “TOTAL PROTEIN” value [2] was 6 G/DL. For the same compound, the “URIC ACID” value [2] was 1.63 mg/dL, the “ABSOLUTE BASOPHIL” value [3] was 0 CELLS/uL and the “ABSOLUTE EOSINOPHIL” value [3] was 0 CELLS/uL. The “ABSOLUTE LYMPHOCYTE” value [3] was 11373.67 CELLS/uL, the “ABSOLUTE MONOCYTE” value [3] was 168.67 CELLS/uL and the “ABSOLUTE SEGMENTED NEUTROPHIL” value [3] was 2324.33 CELLS/uL. For the same compound, the BASOPHIL [3] was 0%, the EOSINOPHIL [3] was 0% and the “ERYTHROCYTE COUNT” value [3] was 5.85 x10E6/uL. The HEMATOCRIT [3] was 35.5%, the HEMOGLOBIN [3] was 13.87 G/DL and the “LEUKOCYTE COUNT” value [3] was 13.87 x10E3/uL. For the same compound, the LYMPHOCYTE [3] was 82.33%, the “MEAN CORPUSCULAR HEMOGLOBIN” value [3] was 23.77 pg and the “MEAN CORPUSCULAR HEMOGLOBIN CONCENTRATION” value [3] was 39.1 G/DL. For the same compound, the “MEAN CORPUSCULAR VOLUME” value [3] was 60.83 fL, the MONOCYTE [3] was 1.33% and the NEUTROPHIL [3] was 16.33%. For the same compound, the “NUCLEATED RED BLOOD CELLS” value [3] was 0 /100WBC, the “PLATELET COUNT” value [3] was 1157.33 x10E3/uL and the “ALANINE AMINOTRANSFERASE” value [3] was 50 u/L. The ALBUMIN [3] was 4.03 G/DL, the “ALKALINE PHOSPHATASE” value [3] was 314.33 u/L and the “ASPARTATE AMINOTRANSFERASE” value [3] was 86 u/L. For the same compound, the “BLOOD UREA NITROGEN” value [3] was 13.67 mg/dL, the “CARBON DIOXIDE” value [3] was 28.33 mmol/L and the CHLORIDE [3] was 99.33 MEQ/L. The CHOLESTEROL [3] was 57.67 mg/dL, the “CREATINE PHOSPHOKINASE” value [3] was 426.33 u/L and the CREATININE [3] was 0.12 mg/dL. For the same compound, the GLUCOSE [3] was 150.67 mg/dL, the “LACTATE DEHYDROGENASE” value [3] was 120 u/L and the LIPASE [3] was 9 u/L. It also gave a PHOSPHORUS [3] of 12.43 mg/dL, a POTASSIUM [3] of 6.97 MEQ/L and an SODIUM [3] of 141.47 MEQ/L. The “TOTAL BILIRUBIN” value [3] was 0.17 mg/dL, the “TOTAL PROTEIN” value [3] was 5.57 G/DL and the “URIC ACID” value [3] was 1.97 mg/dL.
